# Measurements reported in patent publication US20230270743A1, “USE OF BTK INHIBITORS IN THE TREATMENT OF DISEASES” (JIANGSU HENGRUI PHARMACEUTICALS CO., LTD., priority 2020, published 2023).
# Tested on: patients diagnosed with AQP4-IgG positive NMOSD
# Assay: Clinical research of the compound of formula (I) in treating neuromyelitis optica spectrum disorder (NMOSD)
# Assay type: in vivo, human
# Description: Average annualized relapse rate (ARR)=total number of episodes of subjects/(number of subjects*observation time).
# Example 1: Clinical Research of the Compound of Formula (I) in Treating Neuromyelitis Optica Spectrum Disorder (NMOSD)
# Tablets of the compound of formula (I), specification: 100 mg/tablet.
# 1) Male or female from 18 to 75 years old (including 18 and 75 years old);
# 2) Patients diagnosed with AQP4-IgG positive NMOSD according to the 2015 IPND diagnostic criteria;
# 3) Requirements for history of relapse: 2 or more relapses of NMOSD requiring rescue therapy within 1 year before baseline, the rescue therapy can include IV glucocorticoid, plasma exchange, and/or intravenous immune globulin (IVIG);
# 4) Subjects must have been on stable treatment (if any) for more than 1 month before starting test drug treatment, defined as follows: • the amount of immunosuppressant (such as tacrolimus, azathioprine, mycophenolate) and/or oral corticosteroid must be stable or in the process of reduction, and the acute phase rescue therapy (such as IV glucocorticoid, plasma exchange, and/or intravenous immunoglobulin) must be completed for more than 1 month.
# The test drug was administered to the qualified subjects in the morning on an empty stomach, once a day, one tablet at a time, and 100 mg per tablet.
# At present, the study has completed the enrollment of all 10 subjects, and the average annualized relapse rate (ARR=the total number of episodes of subjects/(number of subjects*observation time)) of all subjects before enrollment was 2.1. By now, an annualized relapse rate of 0.7 for existing subjects after baseline medication has been observed. A patient with a 7-year history of NMOSD had severe symptoms (unable to stand) before participating in the trial. […] At the 7th week of medication, the patient could walk more than 20 meters with assistance, and could substantially take care of themself.
compound,measurement,setting,value
"CC#CC(=O)N1CC[C@@H](n2cc(-c3ccc(Oc4c(F)cccc4F)cc3)c3c(N)n[nH]c(=O)c32)C1 [compound of formula (I), (R)-4-amino-1-(1-(but-2-ynoyl)pyrrolidin-3-yl)-3-(4-(2,6-difluorophenoxy)phenyl)-1,6-dihydro-7H-pyrrolo[2,3-d]pyridazin-7-one]",annualized relapse rate (ARR) after baseline medication,"AQP4-IgG positive NMOSD subjects (10 enrolled), 100 mg tablet once a day, morning, empty stomach, average ARR before enrollment was 2.1, interim (by now)",0.7
same,mobility of patient,"patient, 7-year history of NMOSD, unable to stand before trial, after 4 weeks of administration, could stand up and walk several steps with assistance",significantly improved mobility
same,walking distance with assistance,"same patient, at the 7th week of medication, could substantially take care of themself",more than 20 meters
